system: KRAS G12V dependent lung adenocarcinoma cell line, NCI-H441; test: Cellular pERK (Thr202/Tyr204) FRET/HTRF assay; assay type: cell-based; conditions: Homo sapiens, NCI-H441, cellular pERK (Thr202/Tyr204) HTRF, NCI-H441 cells
Outline: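 Adherent NCI-H441 cells, plated the previous night, receive test compound for one hour at 37 °C. They are then lysed with a buffer containing phosphatase inhibitors and incubated at room temperature with Eu3+-cryptate and d2 labelled anti-pERK antibodies. HTRF signal gives IC50 by curve fitting.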

Row | SMILES | IC50 [nM]
1 | C#Cc1cccc2cc(N)cc(-c3ncc4c(N5CCOC[C@H]6[C@H](Cl)[C@H]65)nc(OC[C@@H]5CCCN5C)nc4c3F)c12 [Example 322, 4-(4-((1S,7S,8S)-8-chloro-5-oxa-2-azabicyclo[5.1.0]octan-2-yl)-8-fluoro-2-(((S)-1-methylpyrrolidin-2-yl)methoxy)pyrido[4,3-d]pyrimidin-7-yl)-5-ethynylnaphthalen-2-amine] | < 50
2 | [2H]C([2H])(Oc1nc(N2CCOC[C@H]3[C@H](F)[C@H]32)c2cnc(-c3cc(N)cc(Cl)c3C(F)(F)F)c(F)c2n1)[C@@]12CCCN1C[C@H](F)C2 [Example 272, 3-chloro-5-(8-fluoro-4-((1S,7S,8S)-8-fluoro-5-oxa-2-azabicyclo[5.1.0]octan-2-yl)-2-(((2R,7aS)-2-fluorotetrahydro-1H-pyrrolizin-7a(5H)-yl)methoxy-d2)pyrido[4,3-d]pyrimidin-7-yl)-4-(trifluoromethyl)aniline] | < 50
3 | [2H]C([2H])(Oc1nc(N2CCOC[C@H]3[C@H](F)[C@H]32)c2cnc(-c3cc(O)cc4cccc(C#C)c34)c(F)c2n1)[C@@]12CCCN1C[C@H](F)C2 [Example 300, 5-ethynyl-4-(8-fluoro-4-((1S,7S,8S)-8-fluoro-5-oxa-2-azabicyclo[5.1.0]octan-2-yl)-2-(((2R,7aS)-2-fluorotetrahydro-1H-pyrrolizin-7a(5H)-yl)methoxy-d2)pyrido[4,3-d]pyrimidin-7-yl)naphthalen-2-ol] | < 50
4 | [2H]C([2H])(Oc1nc(N2CC[C@@H](C#N)C[C@@H]3[C@H](F)[C@@H]32)c2cnc(-c3cc(N)cc4ccc(F)c(C#C)c34)c(F)c2n1)[C@@]12CCCN1C[C@H](F)C2 [Example 311, (1R,5S,7S,8S)-2-(7-(3-amino-8-ethynyl-7-fluoronaphthalen-1-yl)-8-fluoro-2-(((2R,7aS)-2-fluorotetrahydro-1H-pyrrolizin-7a(5H)-yl)methoxy-d2)pyrido[4,3-d]pyrimidin-4-yl)-8-fluoro-2-azabicyclo[5.1.0]octane-5-carbonitrile] | 50 to 500
5 | C#Cc1c(F)ccc2cccc(-c3ncc4c(N5CCOC[C@H]6[C@H](F)[C@H]65)nc(OC[C@]56C/C(=C/F)CN5CCC65CC5)nc4c3F)c12 [Example 376, (1S,7S,8S)-2-(7-(8-Ethynyl-7-fluoronaphthalen-1-yl)-8-fluoro-2-(((R,Z)-6′-(fluoromethylene)tetrahydrospiro[cyclopropane-1,1′-pyrrolizin]-7a′(5′H)-yl)methoxy)pyrido[4,3-d]pyrimidin-4-yl)-8-fluoro-5-oxa-2-azabicyclo[5.1.0]octane] | < 50
6 | [2H]C([2H])(Oc1nc(N2CCOC[C@H]3[C@H](F)[C@H]32)c2cnc(-c3nc(N)cc(C)c3C(F)(F)F)c(F)c2n1)[C@@]12CCCN1C[C@H](F)C2 [Example 186, 6-(8-fluoro-4-((1S,7S,8S)-8-fluoro-5-oxa-2-azabicyclo[5.1.0]octan-2-yl)-2-(((2R,7aS)-2-fluorotetrahydro-1H-pyrrolizin-7a(5H)-yl)methoxy-d2)pyrido[4,3-d]pyrimidin-7-yl)-4-methyl-5-(trifluoromethyl)pyridin-2-amine] | 50 to 500
7 | C#Cc1c(F)ccc2cccc(-c3ncc4c(N5CCOC[C@H]6[C@H](F)[C@H]65)nc(OC[C@]56C[C@@H](F)CN5C[C@@H](CN)C6)nc4c3F)c12 [Example 246, ((2R,6R,7aS)-7a-(((7-(8-ethynyl-7-fluoronaphthalen-1-yl)-8-fluoro-4-((1S,7S,8S)-8-fluoro-5-oxa-2-azabicyclo[5.1.0]octan-2-yl)pyrido[4,3-d]pyrimidin-2-yl)oxy)methyl)-6-fluorohexahydro-1H-pyrrolizin-2-yl)methanamine] | 500 to 10000
8 | [2H]C([2H])(Oc1nc(N2CC=CC[C@H]3[C@H](F)[C@H]32)c2cnc(-c3cc(N)cc4ccc(F)c(C#C)c34)c(F)c2n1)[C@@]12CCCN1C[C@H](F)C2 [Example 174, 5-Ethynyl-6-fluoro-4-(8-fluoro-4-((1S,7R,8S)-8-fluoro-2-azabicyclo[5.1.0]oct-4-en-2-yl)-2-(((2R,7aS)-2-fluorotetrahydro-1H-pyrrolizin-7a(5H)-yl)methoxy-d2)pyrido[4,3-d]pyrimidin-7-yl)naphthalen-2-amine] | < 50
9 | C#Cc1c(F)ccc2cc(N)cc(-c3ncc4c(N5CCOC[C@H]6[C@H](F)[C@H]65)nc(OC[C@@]56CC[C@@H](C)N5C[C@H](F)C6)nc4c3F)c12 [Example 287, 5-Ethynyl-6-fluoro-4-(8-fluoro-2-(((2R,5R,7aS)-2-fluoro-5-methyltetrahydro-1H-pyrrolizin-7a(5H)-yl)methoxy)-4-((1S,7S,8S)-8-fluoro-5-oxa-2-azabicyclo[5.1.0]octan-2-yl)pyrido[4,3-d]pyrimidin-7-yl)naphthalen-2-amine] | < 50
10 | [2H]C([2H])(Oc1nc(N2CCOC[C@H]3[C@H](F)[C@H]32)c2cc(C#N)c(-c3cc(N)cc4ccc(F)c(C#C)c34)c(C)c2n1)[C@@]12CCCN1C[C@H](F)C2 [Example 422, 7-(3-amino-8-ethynyl-7-fluoronaphthalen-1-yl)-4-((1S,7S,8S)-8-fluoro-5-oxa-2-azabicyclo[5.1.0]octan-2-yl)-2-(((2R,7aS)-2-fluorotetrahydro-1H-pyrrolizin-7a(5H)-yl)methoxy-d2)-8-methylquinazoline-6-carbonitrile] | < 50
11 | [2H]C([2H])(Oc1nc(N2CCOC[C@H]3[C@H](Cl)[C@H]32)c2cnc(-c3cc(N)cc4ccc(C)c(C#C)c34)c(F)c2n1)[C@@]12CCCN1[C@H](C)[C@H](F)C2 [Example 366, 4-(4-((1S,7S,8S)-8-chloro-5-oxa-2-azabicyclo[5.1.0]octan-2-yl)-8-fluoro-2-(((2R,3R,7aS)-2-fluoro-3-methyltetrahydro-1H-pyrrolizin-7a(5H)-yl)methoxy-d2)pyrido[4,3-d]pyrimidin-7-yl)-5-ethynyl-6-methylnaphthalen-2-amine] | < 50
12 | [2H]C1([2H])CC[C@@]2(C([2H])([2H])Oc3nc(N4CCOC[C@H]5[C@H](F)[C@H]54)c4cnc(-c5cc(N)cc6ccc(F)c(C#C)c56)c(F)c4n3)C[C@@]3(C[C@@H]3F)CN12 (single isomer, unassigned) [Example 275] | < 50

same assay, conditions: Homo sapiens, NCI-H441, cellular pERK HTRF, NCI-H441 (KRAS G12V) cells

Row | SMILES | IC50 [nM]
13 | C=C1CN2CCC[C@@]2(COc2nc(N3CCOC[C@H]4[C@H](F)[C@H]43)c3cc(C(F)(F)F)c(-c4ccc(F)c5sc(N)c(C#N)c45)c(F)c3n2)C1 (atropisomer, axis not shown) [Example 433, 2-amino-7-fluoro-4-((R)-8-fluoro-4-((1S,7S,8S)-8-fluoro-5-oxa-2-azabicyclo[5.1.0]octan-2-yl)-2-(((S)-2-methylenetetrahydro-1H-pyrrolizin-7a(5H)-yl)methoxy)-6-(trifluoromethyl)quinazolin-7-yl)benzo[b]thiophene-3-carbonitrile] | 500 to 10000
14 | [2H]C([2H])(Oc1nc(N2CCCC[C@H]3[C@H](F)[C@H]32)c2cnc(-c3cc(O)cc4ccc(F)c(C#C)c34)c(C)c2n1)[C@]12CC(=C)CN1CCC21CC1 [Example 462, 5-Ethynyl-6-fluoro-4-(4-((1S,7R,8S)-8-fluoro-2-azabicyclo[5.1.0]octan-2-yl)-8-methyl-2-(((R)-6′-methylenetetrahydrospiro[cyclopropane-1,1′-pyrrolizin]-7a′(5′H)-yl)methoxy-d2)pyrido[4,3-d]pyrimidin-7-yl)naphthalen-2-ol] | < 50

same assay, conditions: Homo sapiens, NCI-H441, pERK HTRF, NCI-H441 cells (KRAS G12V)

Row | SMILES | IC50 [nM]
15 | [2H]C([2H])(Oc1nc(N2CCC[C@@H]3C[C@@H]32)c2cnc(-c3cc(N)cc4cc(F)c(F)c(C#C)c34)c(F)c2n1)[C@@]12CCCN1C[C@H](F)C2 [Example 51, 4-(4-((1S,6R)-2-Azabicyclo[4.1.0]heptan-2-yl)-8-fluoro-2-(((2R,7aS)-2-fluorotetrahydro-1H-pyrrolizin-7a(5H)-yl)methoxy-d2)pyrido[4,3-d]pyrimidin-7-yl)-5-ethynyl-6,7-difluoronaphthalen-2-amine] | 500 to 10000
16 | [2H]C([2H])([2H])Oc1c(F)c(F)cc2cc(N)cc(-c3ncc4c(N5CCOC[C@H]6[C@H](F)[C@H]65)nc(OC([2H])([2H])[C@@]56CCCN5C[C@H](F)C6)nc4c3F)c12 [Example 44, 6,7-Difluoro-4-(8-fluoro-4-((1S,7S,8S)-8-fluoro-5-oxa-2-azabicyclo[5.1.0]octan-2-yl)-2-(((2R,7aS)-2-fluorotetrahydro-1H-pyrrolizin-7a(5H)-yl)methoxy-d2)pyrido[4,3-d]pyrimidin-7-yl)-5-(methoxy-d3)naphthalen-2-amine] | < 50

same assay, conditions: cellular pERK (Thr202/Tyr204) HTRF, NCI-H441 cells

Row | SMILES | IC50 [nM]
17 | [2H]C([2H])(Oc1nc(N2CCOC[C@H]3[C@H](Cl)[C@H]32)c2cc(C(F)(F)F)c(-c3ccc(F)c4sc(N)c(C#N)c34)c(F)c2n1)[C@@]12CCCN1C[C@H](F)C2 (atropisomer, axis not shown; (aS)) [Example 418, 2-amino-4-((R)-4-((1S,7S,8S)-8-chloro-5-oxa-2-azabicyclo[5.1.0]octan-2-yl)-8-fluoro-2-(((2R,7aS)-2-fluorotetrahydro-1H-pyrrolizin-7a(5H)-yl)methoxy-d2)-6-(trifluoromethyl)quinazolin-7-yl)-7-fluorobenzo[b]thiophene-3-carbonitrile] | 500 to 10000

same assay, conditions: cellular pERK HTRF, NCI-H441 (KRAS G12V) cells

Row | SMILES | IC50 [nM]
18 | N#Cc1c(N)sc2c(F)ccc(-c3c(C(F)(F)F)cc4c(N5CCOC[C@H]6[C@H](F)[C@H]65)nc(OC[C@@]56CCCN5CC(=C(F)F)C6)nc4c3F)c12 (atropisomer, axis not shown) [Example 439, 2-amino-4-((S)-2-(((S)-2-(difluoromethylene)tetrahydro-1H-pyrrolizin-7a(5H)-yl)methoxy)-8-fluoro-4-((1S,7S,8S)-8-fluoro-5-oxa-2-azabicyclo[5.1.0]octan-2-yl)-6-(trifluoromethyl)quinazolin-7-yl)-7-fluorobenzo[b]thiophene-3-carbonitrile] | < 50

Source: patent publication US20250282799A1, “SUBSTITUTED PYRIDO[4,3-d]PYRIMIDINES AS KRAS MODULATORS” (Alterome Therapeutics, Inc., priority 2023, published 2025)
